Columns and labels:
Experiment in all cases: radiometric filter-binding kinase assay
[1] = biological target: DYRK1A (human) (UniProt Q13627)
[2] = biological target: EPHB4 (human) (UniProt P54760)
[3] = biological target: PIM1 (human) (UniProt P11309)
[4] = biological target: MAPKAPK5 (human) (UniProt Q8IW41)
[5] = biological target: FGFR1 (human) (UniProt P11362)
[6] = biological target: HIPK3 (human) (UniProt Q9H422)
[7] = biological target: PRKCZ (human) (UniProt Q05513)
[8] = biological target: PAK7 (human) (UniProt Q9P286)
[9] = test system: SGK1 (human), O00141 [S422D]
[10] = biological target: MAP3K5 (human) (UniProt Q99683)
[11] = biological target: SYK (human) (UniProt P43405)
[12] = biological target: IKBKE (human) (UniProt Q14164)
[13] = biological target: PIM2 (human) (UniProt Q9P1W9)
[14] = biological target: DAPK1 (human) (UniProt P53355)
[15] = biological target: BRSK2 (human) (UniProt Q8IWQ3)
[16] = biological target: MAPK3 (human) (UniProt P27361)
[17] = biological target: PIM3 (human) (UniProt Q86V86)
[18] = biological target: MKNK1 (human) (UniProt Q9BUB5)
[19] = biological target: MAPKAPK2 (human) (UniProt P49137)
[20] = biological target: MAP2K6 (human) (UniProt P52564)
[21] = biological target: MAPK12 (human) (UniProt P53778)
[22] = biological target: BRSK1 (human) (UniProt Q8TDC3)
[23] = biological target: MAP2K2 (human) (UniProt P36507)
[24] = biological target: MELK (human) (UniProt Q14680)
[25] = biological target: STK3 (human) (UniProt Q13188)
[26] = biological target: PHKG1 (human) (UniProt Q16816)
[27] = biological target: PRKACA (human) (UniProt P17612)
[28] = biological target: MARK1 (human) (UniProt Q9P0L2)
[29] = biological target: MAPK9 (human) (UniProt P45984)
[30] = biological target: CAMKK2 (human) (UniProt Q96RR4)
[31] = test system: PRKAA1 or PRKAA2 (rat); conditions: accession and sequence are those of the human protein
[32] = biological target: GSK3B (human) (UniProt P49841)
[33] = biological target: ERBB4 (human) (UniProt Q15303)
[34] = biological target: EEF2K (human) (UniProt O00418)
[35] = biological target: MAPK13 (human) (UniProt O15264)
[36] = biological target: IGF1R (human) (UniProt P08069)

Chain of MKNK1 (human) (Q9BUB5 whole entry, looked up): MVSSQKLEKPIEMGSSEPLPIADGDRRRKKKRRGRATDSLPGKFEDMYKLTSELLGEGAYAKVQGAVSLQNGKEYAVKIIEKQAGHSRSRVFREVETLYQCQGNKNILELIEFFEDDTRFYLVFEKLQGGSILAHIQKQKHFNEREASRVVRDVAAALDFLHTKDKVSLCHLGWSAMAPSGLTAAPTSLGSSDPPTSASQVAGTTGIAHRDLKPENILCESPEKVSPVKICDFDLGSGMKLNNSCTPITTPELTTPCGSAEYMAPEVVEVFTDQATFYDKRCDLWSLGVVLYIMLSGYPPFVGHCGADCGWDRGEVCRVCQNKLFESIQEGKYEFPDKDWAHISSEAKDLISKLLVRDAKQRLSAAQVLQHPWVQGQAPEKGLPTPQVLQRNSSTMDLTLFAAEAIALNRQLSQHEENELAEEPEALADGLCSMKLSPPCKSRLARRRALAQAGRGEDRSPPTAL
Chain of CAMKK2 (human) (Q96RR4 whole entry, looked up): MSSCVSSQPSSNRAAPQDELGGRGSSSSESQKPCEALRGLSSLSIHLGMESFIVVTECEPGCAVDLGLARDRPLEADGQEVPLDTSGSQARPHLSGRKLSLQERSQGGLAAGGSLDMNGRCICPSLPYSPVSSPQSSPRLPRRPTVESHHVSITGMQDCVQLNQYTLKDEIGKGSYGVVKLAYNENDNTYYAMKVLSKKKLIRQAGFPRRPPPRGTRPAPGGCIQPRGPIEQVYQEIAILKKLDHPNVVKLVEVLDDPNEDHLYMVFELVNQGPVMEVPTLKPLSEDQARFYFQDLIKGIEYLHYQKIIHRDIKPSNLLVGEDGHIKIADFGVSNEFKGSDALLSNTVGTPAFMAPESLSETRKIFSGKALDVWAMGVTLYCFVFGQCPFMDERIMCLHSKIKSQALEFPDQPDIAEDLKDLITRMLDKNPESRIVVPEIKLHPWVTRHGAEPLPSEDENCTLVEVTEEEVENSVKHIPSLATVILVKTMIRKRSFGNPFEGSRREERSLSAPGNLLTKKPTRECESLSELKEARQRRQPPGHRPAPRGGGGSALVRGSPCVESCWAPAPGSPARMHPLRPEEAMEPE
Chain of PAK7 (human) (Q9P286 whole entry, looked up): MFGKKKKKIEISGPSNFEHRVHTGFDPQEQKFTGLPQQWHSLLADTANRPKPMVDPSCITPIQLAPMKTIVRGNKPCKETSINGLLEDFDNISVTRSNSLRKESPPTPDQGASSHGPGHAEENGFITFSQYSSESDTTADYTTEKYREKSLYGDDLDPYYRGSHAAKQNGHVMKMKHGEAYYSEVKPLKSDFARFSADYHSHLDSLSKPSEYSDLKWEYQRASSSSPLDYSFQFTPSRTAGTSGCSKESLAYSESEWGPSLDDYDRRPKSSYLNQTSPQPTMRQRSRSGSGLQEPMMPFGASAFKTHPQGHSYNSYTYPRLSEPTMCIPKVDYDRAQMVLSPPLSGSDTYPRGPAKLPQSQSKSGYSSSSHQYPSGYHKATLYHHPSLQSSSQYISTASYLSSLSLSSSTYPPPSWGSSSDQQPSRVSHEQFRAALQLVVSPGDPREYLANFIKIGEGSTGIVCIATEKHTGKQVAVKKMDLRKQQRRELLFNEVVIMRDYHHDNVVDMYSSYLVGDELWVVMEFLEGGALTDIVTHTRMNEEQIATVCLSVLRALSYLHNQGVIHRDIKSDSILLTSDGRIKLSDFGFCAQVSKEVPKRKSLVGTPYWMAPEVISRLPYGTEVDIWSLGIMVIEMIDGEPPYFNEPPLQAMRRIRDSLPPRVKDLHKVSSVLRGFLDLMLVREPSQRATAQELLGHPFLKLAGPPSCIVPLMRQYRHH
Chain of BRSK1 (human) (Q8TDC3 whole entry, looked up): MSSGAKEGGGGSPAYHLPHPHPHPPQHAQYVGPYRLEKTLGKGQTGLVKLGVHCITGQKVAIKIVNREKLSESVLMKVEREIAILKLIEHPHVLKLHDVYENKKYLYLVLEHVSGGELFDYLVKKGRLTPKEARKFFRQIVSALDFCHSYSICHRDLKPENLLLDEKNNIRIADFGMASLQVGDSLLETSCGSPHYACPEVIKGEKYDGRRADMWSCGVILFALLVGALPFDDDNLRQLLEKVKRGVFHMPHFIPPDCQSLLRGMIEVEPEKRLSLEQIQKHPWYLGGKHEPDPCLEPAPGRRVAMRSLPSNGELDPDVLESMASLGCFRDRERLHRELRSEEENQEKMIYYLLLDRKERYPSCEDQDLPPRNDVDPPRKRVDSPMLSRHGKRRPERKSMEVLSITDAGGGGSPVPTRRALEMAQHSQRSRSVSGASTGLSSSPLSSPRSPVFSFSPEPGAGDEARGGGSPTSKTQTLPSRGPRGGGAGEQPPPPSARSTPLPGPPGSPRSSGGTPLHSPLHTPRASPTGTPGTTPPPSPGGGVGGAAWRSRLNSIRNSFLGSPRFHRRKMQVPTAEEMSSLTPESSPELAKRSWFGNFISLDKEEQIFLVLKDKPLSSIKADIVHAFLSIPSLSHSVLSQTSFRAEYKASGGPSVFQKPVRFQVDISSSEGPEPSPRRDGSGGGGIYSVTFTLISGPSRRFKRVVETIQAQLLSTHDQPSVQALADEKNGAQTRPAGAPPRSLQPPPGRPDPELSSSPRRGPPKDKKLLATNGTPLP
Chain of GSK3B (human) (P49841 whole entry, looked up): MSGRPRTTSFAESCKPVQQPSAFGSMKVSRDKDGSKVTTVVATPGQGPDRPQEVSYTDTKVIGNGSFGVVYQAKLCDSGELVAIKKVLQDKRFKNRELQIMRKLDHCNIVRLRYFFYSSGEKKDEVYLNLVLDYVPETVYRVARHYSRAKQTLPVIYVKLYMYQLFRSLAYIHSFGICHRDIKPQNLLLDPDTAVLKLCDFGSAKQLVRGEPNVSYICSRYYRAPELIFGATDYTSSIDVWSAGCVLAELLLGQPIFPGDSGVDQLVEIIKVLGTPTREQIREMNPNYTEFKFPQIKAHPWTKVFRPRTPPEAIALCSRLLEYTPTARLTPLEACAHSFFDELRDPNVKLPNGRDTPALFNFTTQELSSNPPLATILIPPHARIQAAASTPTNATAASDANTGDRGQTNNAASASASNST
Chain of HIPK3 (human) (Q9H422 whole entry, looked up): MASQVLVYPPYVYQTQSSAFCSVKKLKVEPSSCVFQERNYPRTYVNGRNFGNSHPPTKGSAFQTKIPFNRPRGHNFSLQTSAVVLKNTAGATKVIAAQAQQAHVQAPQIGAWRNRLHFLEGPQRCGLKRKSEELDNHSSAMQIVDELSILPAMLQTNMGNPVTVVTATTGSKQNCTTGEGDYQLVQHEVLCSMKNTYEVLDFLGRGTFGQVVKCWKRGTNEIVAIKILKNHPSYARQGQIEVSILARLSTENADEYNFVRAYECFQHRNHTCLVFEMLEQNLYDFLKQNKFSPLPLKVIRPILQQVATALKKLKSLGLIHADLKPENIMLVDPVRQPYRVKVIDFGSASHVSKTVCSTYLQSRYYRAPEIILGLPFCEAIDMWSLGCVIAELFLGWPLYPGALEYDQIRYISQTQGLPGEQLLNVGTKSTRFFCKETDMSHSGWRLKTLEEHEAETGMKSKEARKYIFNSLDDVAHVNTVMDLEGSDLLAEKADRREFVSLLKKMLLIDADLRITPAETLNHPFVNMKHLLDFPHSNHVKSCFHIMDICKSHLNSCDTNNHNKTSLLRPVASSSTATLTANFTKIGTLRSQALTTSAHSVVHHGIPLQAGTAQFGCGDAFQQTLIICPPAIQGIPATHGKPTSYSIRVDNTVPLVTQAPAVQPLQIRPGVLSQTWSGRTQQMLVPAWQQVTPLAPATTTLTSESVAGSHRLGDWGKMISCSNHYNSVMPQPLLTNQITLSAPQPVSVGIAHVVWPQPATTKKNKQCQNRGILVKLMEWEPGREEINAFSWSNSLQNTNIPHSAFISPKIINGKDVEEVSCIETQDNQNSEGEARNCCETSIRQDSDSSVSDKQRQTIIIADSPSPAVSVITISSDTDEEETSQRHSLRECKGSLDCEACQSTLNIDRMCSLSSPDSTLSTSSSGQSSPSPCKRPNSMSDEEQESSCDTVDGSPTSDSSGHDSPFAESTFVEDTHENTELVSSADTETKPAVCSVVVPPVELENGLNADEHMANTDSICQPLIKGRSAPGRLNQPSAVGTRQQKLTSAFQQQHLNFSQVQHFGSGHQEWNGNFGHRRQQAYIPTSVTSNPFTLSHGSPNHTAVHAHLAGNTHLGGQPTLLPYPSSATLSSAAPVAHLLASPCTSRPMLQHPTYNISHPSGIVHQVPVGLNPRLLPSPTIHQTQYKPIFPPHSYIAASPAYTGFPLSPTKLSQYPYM
Chain of MAPKAPK2 (human) (P49137 whole entry, looked up): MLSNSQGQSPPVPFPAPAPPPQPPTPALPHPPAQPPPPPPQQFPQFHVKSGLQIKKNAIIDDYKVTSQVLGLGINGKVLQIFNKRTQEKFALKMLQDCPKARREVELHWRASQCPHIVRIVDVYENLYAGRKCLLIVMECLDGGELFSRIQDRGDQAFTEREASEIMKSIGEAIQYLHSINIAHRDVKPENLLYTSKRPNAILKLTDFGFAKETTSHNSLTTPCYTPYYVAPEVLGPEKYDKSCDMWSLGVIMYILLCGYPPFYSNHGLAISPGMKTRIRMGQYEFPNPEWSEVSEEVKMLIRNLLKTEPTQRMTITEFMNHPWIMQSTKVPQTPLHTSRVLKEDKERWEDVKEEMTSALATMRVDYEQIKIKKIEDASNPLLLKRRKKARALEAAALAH
Chain of MAPK3 (human) (P27361 whole entry, looked up): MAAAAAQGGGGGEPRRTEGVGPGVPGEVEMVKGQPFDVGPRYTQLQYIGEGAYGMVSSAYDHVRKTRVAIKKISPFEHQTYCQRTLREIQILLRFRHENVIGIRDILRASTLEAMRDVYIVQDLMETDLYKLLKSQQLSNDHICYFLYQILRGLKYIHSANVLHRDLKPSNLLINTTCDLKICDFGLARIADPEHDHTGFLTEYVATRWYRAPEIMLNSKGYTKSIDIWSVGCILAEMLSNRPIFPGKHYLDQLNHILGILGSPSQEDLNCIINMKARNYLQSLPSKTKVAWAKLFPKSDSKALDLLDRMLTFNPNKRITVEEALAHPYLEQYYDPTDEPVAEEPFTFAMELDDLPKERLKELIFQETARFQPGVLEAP

residual activity ([1]; compound 0.1 µM): 95% | residual activity ([1]; compound 1.0 µM): 88% | residual activity ([1]; compound 10.0 µM): 57% | residual activity ([2]; compound 0.1 µM): 101% | residual activity ([2]; compound 1.0 µM): 105% | residual activity ([2]; compound 10.0 µM): 86% | residual activity ([3]; compound 0.1 µM): 102% | residual activity ([3]; compound 1.0 µM): 93% | residual activity ([3]; compound 10.0 µM): 68% | residual activity ([4]; compound 0.1 µM): 81% | residual activity ([4]; compound 10.0 µM): 102% | residual activity ([5]; compound 0.1 µM): 100% | residual activity ([5]; compound 1.0 µM): 95% | residual activity ([5]; compound 10.0 µM): 70% | residual activity ([6]; compound 0.1 µM): 117% | residual activity ([6]; compound 1.0 µM): 100% | residual activity ([6]; compound 10.0 µM): 100% | residual activity ([7]; compound 0.1 µM): 97% | residual activity ([7]; compound 1.0 µM): 105% | residual activity ([7]; compound 10.0 µM): 97% | residual activity ([8]; compound 0.1 µM): 101% | residual activity ([8]; compound 1.0 µM): 96% | residual activity ([8]; compound 10.0 µM): 75% | residual activity ([9]; compound 0.1 µM): 90% | residual activity ([9]; compound 1.0 µM): 85% | residual activity ([9]; compound 10.0 µM): 63% | residual activity ([10]; compound 0.1 µM): 97% | residual activity ([10]; compound 1.0 µM): 87% | residual activity ([10]; compound 10.0 µM): 90% | residual activity ([11]; compound 0.1 µM): 116% | residual activity ([11]; compound 1.0 µM): 100% | residual activity ([11]; compound 10.0 µM): 96% | residual activity ([12]; compound 0.1 µM): 88% | residual activity ([12]; compound 1.0 µM): 90% | residual activity ([12]; compound 10.0 µM): 91% | residual activity ([13]; compound 0.1 µM): 86% | residual activity ([13]; compound 1.0 µM): 105% | residual activity ([13]; compound 10.0 µM): 97% | residual activity ([14]; compound 0.1 µM): 85% | residual activity ([14]; compound 1.0 µM): 90% | residual activity ([14]; compound 10.0 µM): 48% | residual activity ([15]; compound 0.1 µM): 102% | residual activity ([15]; compound 1.0 µM): 88% | residual activity ([15]; compound 10.0 µM): 94% | residual activity ([16]; compound 0.1 µM): 108% | residual activity ([16]; compound 1.0 µM): 87% | residual activity ([16]; compound 10.0 µM): 93% | residual activity ([17]; compound 0.1 µM): 89% | residual activity ([17]; compound 1.0 µM): 83% | residual activity ([17]; compound 10.0 µM): 51% | residual activity ([18]; compound 0.1 µM): 105% | residual activity ([18]; compound 1.0 µM): 104% | residual activity ([18]; compound 10.0 µM): 58% | residual activity ([19]; compound 0.1 µM): 99% | residual activity ([19]; compound 1.0 µM): 110% | residual activity ([19]; compound 10.0 µM): 88% | residual activity ([20]; compound 0.1 µM): 109% | residual activity ([20]; compound 1.0 µM): 98% | residual activity ([20]; compound 10.0 µM): 104% | residual activity ([21]; compound 0.1 µM): 94% | residual activity ([21]; compound 1.0 µM): 94% | residual activity ([21]; compound 10.0 µM): 101% | residual activity ([22]; compound 0.1 µM): 115% | residual activity ([22]; compound 1.0 µM): 112% | residual activity ([22]; compound 10.0 µM): 87% | residual activity ([23]; compound 0.1 µM): 103% | residual activity ([23]; compound 1.0 µM): 99% | residual activity ([23]; compound 10.0 µM): 90% | residual activity ([24]; compound 0.1 µM): 80% | residual activity ([24]; compound 1.0 µM): 75% | residual activity ([24]; compound 10.0 µM): 80% | residual activity ([25]; compound 0.1 µM): 79% | residual activity ([25]; compound 1.0 µM): 97% | residual activity ([25]; compound 10.0 µM): 94% | residual activity ([26]; compound 0.1 µM): 109% | residual activity ([26]; compound 1.0 µM): 98% | residual activity ([26]; compound 10.0 µM): 68% | residual activity ([27]; compound 0.1 µM): 104% | residual activity ([27]; compound 1.0 µM): 91% | residual activity ([27]; compound 10.0 µM): 90% | residual activity ([28]; compound 0.1 µM): 113% | residual activity ([28]; compound 1.0 µM): 88% | residual activity ([28]; compound 10.0 µM): 98% | residual activity ([29]; compound 0.1 µM): 83% | residual activity ([29]; compound 1.0 µM): 94% | residual activity ([29]; compound 10.0 µM): 97% | residual activity ([30]; compound 0.1 µM): 92% | residual activity ([30]; compound 1.0 µM): 99% | residual activity ([30]; compound 10.0 µM): 84% | residual activity ([31]; compound 0.1 µM): 98% | residual activity ([31]; compound 1.0 µM): 85% | residual activity ([31]; compound 10.0 µM): 83% | residual activity ([32]; compound 0.1 µM): 104% | residual activity ([32]; compound 1.0 µM): 85% | residual activity ([32]; compound 10.0 µM): 72% | residual activity ([33]; compound 0.1 µM): 111% | residual activity ([33]; compound 1.0 µM): 95% | residual activity ([34]; compound 0.1 µM): 101% | residual activity ([34]; compound 1.0 µM): 104% | residual activity ([34]; compound 10.0 µM): 109% | residual activity ([35]; compound 0.1 µM): 100% | residual activity ([35]; compound 1.0 µM): 90% | residual activity ([35]; compound 10.0 µM): 106% | residual activity ([36]; compound 0.1 µM): 116% | residual activity ([36]; compound 1.0 µM): 85% | residual activity ([36]; compound 10.0 µM): 55%
Structure (SMILES): NC1(c2ccc(-c3nc4ccn5c(=O)[nH]nc5c4cc3-c3ccccc3)cc2)CCC1
